Results from US7208479B2, “Peritoneal dialysis solution containing modified icodextrins” (Baxter International, Inc., priority 1998, dated 2007).

What was measured:
[1] = Stability under sterilization conditions: absorbance (284 nm) variation after sterilization (121° C. 45 min); type: physicochemical
Description: The products were tested for stability under sterilization conditions at neutral pH. A significant reduction of absorbance variation at 284 nm (Δ Abs) after sterilization is observed for the reduced compounds. The reduced compounds from Example 1 are listed as HMW1 red, HMW2 red and LMW red in Table 1.
Utilizing the three different samples of maltodextrins discussed above with respect to Example 1, oxidation reactions were carried out on each sample by dissolving 15 grams of maltodextrin in 30 ml of water and combining the starch solution with an effective amount of NaOCl in 70 ml of a solution containing sodium hydroxide and having a pH of 8±0.5 at a temperature of 43° C. The combined solutions were allowed to stand for approximately 2 hours and the product solution was purified by gel permeation chromatography. Again, the products were analyzed using ^13C NMR spectroscopy and were tested for stability under sterilization conditions as illustrated in Table 1. While the oxidation products, HMW1 ox HMW2 ox and LMW ox show contrasting results, this is attributed to the high molecular weight oxidized products not being completely purified.
The stability of one product shown in Table 3 was tested for stability under sterilization conditions and the observed variation at 284 nm is compared with that of glucose and methyl glycoside.

[2] = In vitro dialysis test predictive of dialytic efficiency: volume increase inside dialysis bag (Spectra Pore membrane, cut-off 500 Dalton); settings: 37° C.
Description: In an in vitro test predictive of the dialytic efficiency of the osmotic agents described above, small dialysis bags with Spectra Pore membrane with a cut-off 500 Dalton (diameter 15 mm, 15 cm high) were filled with 3 ml of water solutions at different concentrations (2.5, 5.0% w/v of the samples). The bags were immersed in 200 ml of distilled water and 37° C. while stirring the extra dialysis solution. At given times (0, 1, 2, 3, 4, 5, 6 hours), the increase in the volume inside the dialysis bag was evaluated by weight and expressed as a percentage increase compared to the starting volume (Δw %).

[3] = 2.5% solution at pH 7 (footnote *), sterilization 121° C. 45 min
[4] = Table 4, 2.5% (w/v), sterilization 121° C. 45 min
[5] = 2.5% w/v, listed as α-methly-gluc.
[6] = 2.5% w/v, listed as β-methly-gluc.

Compound | ΔAbs (pH 6.5–7.5) [1, 3] | ΔAbs neutra (pH 6.5–7.5) [1, 4] | Δw % 1 h ([2]; 2.5% w/v) [%] | Δw % 2 h ([2]; 2.5% w/v) [%] | Δw % 3 h ([2]; 2.5% w/v) [%] | Δw % 4 h ([2]; 2.5% w/v) [%] | Δw % 5 h ([2]; 2.5% w/v) [%] | Δw % 6 h ([2]; 2.5% w/v) [%] | Δw % 1 h ([2]; 5% w/v) [%] | Δw % 2 h ([2]; 5% w/v) [%] | Δw % 3 h ([2]; 5% w/v) [%] | Δw % 4 h ([2]; 5% w/v) [%] | Δw % 5 h ([2]; 5% w/v) [%] | Δw % 6 h ([2]; 5% w/v) [%] | also measured
O=C1O[C@H](CO)[C@@H](O)[C@H](O)[C@H]1O [D(+)-Gluconolactone] | 0.01 |  |  |  |  |  |  |  |  |  |  |  |  |  | 
O=C[C@H](O)[C@@H](O)[C@H](O)[C@H](O)CO [Glucose] | 0.98 | 0.07 | 15.3 | 34.2 | 43.4 | 57.3 | 74.2 | 90.9 |  |  |  |  |  |  | ΔAbs (pH 6.5–7.5) ([1]; 5% solution, after minus before sterilization 121° C. 45 min, pH 6.5–7.5): 2.54 ± 0.78; ΔAbs (pH 5.5) ([1]; 5% solution, sterilization 121° C. 45 min, pH 5.5): 2.36 ± 0.96; ΔAbs neutra (pH 6.5–7.5) ([1]; Table 4, 5% (w/v), sterilization 121° C. 45 min): 2.43 ± 0.9
O=P(O)(O)O[C@H]1O[C@H](CO)[C@@H](O)[C@H](O)[C@H]1O [gluc.-1-phos., glucose-1-phosphate] |  |  | 35.8 | 53.6 | 76.3 | 95.9 | 120.1 | 144.1 |  |  |  |  |  |  | 
COC1OC(CO)C(O)C(O)C1O (stereo not drawn) [α-methyl-gluc.] |  |  |  |  |  |  |  |  | 30.9 | 60.7 | 86.5 | 107.9 | 123.2 | 142.0 | Δw % 1 h [2, 5]: 21.8%; Δw % 2 h [2, 5]: 39.2%; Δw % 3 h [2, 5]: 55.4%; Δw % 4 h [2, 5]: 67.64%; Δw % 5 h [2, 5]: 79.5%; Δw % 6 h [2, 5]: 92.1%
COC1OC(CO)C(O)C(O)C1O (stereo not drawn) [β-methyl-gluc.] |  |  |  |  |  |  |  |  | 45 | 76.1 | 103.0 | 129.7 | 151.7 | 174.9 | Δw % 1 h [2, 6]: 34.0%; Δw % 2 h [2, 6]: 50.3%; Δw % 3 h [2, 6]: 63.7%; Δw % 4 h [2, 6]: 67.6%; Δw % 5 h [2, 6]: 77.7%; Δw % 6 h [2, 6]: 86.5%
Methyl glycoside |  | 0.01 |  |  |  |  |  |  |  |  |  |  |  |  | 
